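How tested: cells in 96-well plates exposed to compound for 48 hours at five concentrations. At the GI50, growth is halved. Definition used: TGI = concentration required for complete inhibition of growth.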

Test systems include CCRF-CEM leukemia; RXF 393 renal; SK-MEL-5 melanoma; OVCAR-8 ovarian; LOX IMVI melanoma; HCT-15 colon; HL-60(TB) leukemia; U251 CNS; NCI-H23 lung; MALME-3M melanoma.
What all share (experiment): growth of human tumour cells (NCI), 48 h

On to `O=C(N/N=C/c1cc(Br)cc(Br)c1[O-])c1ccccc1O.O=C(N/N=C/c1cc(Br)cc(Br)c1[O-])c1ccccc1O.[Cl-].[Fe+3]`, for which, in the test on CCRF-CEM leukemia, the GI50 was 38.6 µM. Also, the TGI was over 100 µM in the test with CCRF-CEM leukemia; 6.39 µM in the test with RXF 393 renal; 12.3 µM in the test with SK-MEL-5 melanoma; 33.4 µM in the test on OVCAR-8 ovarian; 15.5 µM in the test with LOX IMVI melanoma; 3.84 µM in the test with HCT-15 colon. The TGI in the test on HL-60(TB) leukemia amounted to 6.54 µM; in the test with U251 CNS it was 4.91 µM.

For the compound `CCOC(=O)C1=C(C)N2CCCOC2(C)C(C(=O)OC)C1c1cccc([N+](=O)[O-])c1` (stereo not given), the TGI in the test with CCRF-CEM leukemia, with RXF 393 renal, in the test on SK-MEL-5 melanoma, with OVCAR-8 ovarian, with NCI-H23 lung and in the test on HL-60(TB) leukemia was over 100 µM each time.

In the case of `C#CCCCCC#CC1CCCC1C1=CC(=O)c2ccccc21` (stereo not given), the TGI is 18.4 µM in the test with RXF 393 renal; 20.2 µM in the test with SK-MEL-5 melanoma; 3.52 µM in the test with OVCAR-8 ovarian; 13.9 µM in the test on LOX IMVI melanoma; 24.5 µM with NCI-H23 lung; 19.9 µM with HCT-15 colon. The TGI with HL-60(TB) leukemia was found to be 3.93 µM; with MALME-3M melanoma, 20.1 µM; in the test with U251 CNS, 16.9 µM.

`CC(=O)O[C@H]1CC[C@]2(C)[C@H]3C(=O)C=C4[C@@H]5C[C@](C)(C(=O)N6CCCNCC6)CC[C@]5(C)CC[C@@]4(C)[C@]3(C)CC[C@H]2C1(C)C`: the GI50 with RXF 393 renal was 1.66 µM; in the test with SK-MEL-5 melanoma, 2.1 µM; in the test on NCI-H23 lung it was 1.73 µM; in the test with HCT-15 colon it was 1.48 µM; with MALME-3M melanoma, 1.8 µM; with U251 CNS it was 1.6 µM. The TGI in the test with RXF 393 renal came to 3.24 µM; in the test on SK-MEL-5 melanoma, 4.42 µM; with NCI-H23 lung, 3.37 µM; with HCT-15 colon, 2.97 µM; with MALME-3M melanoma it was 3.47 µM; with U251 CNS, 3.37 µM.

As to `CCCNCC(O)/C=C/[Si](C)(C)C` (stereo not given) (tested in a mixture with another compound), the TGI in the test on CCRF-CEM leukemia, in the test with RXF 393 renal, in the test on SK-MEL-5 melanoma, with OVCAR-8 ovarian, in the test with LOX IMVI melanoma and in the test with NCI-H23 lung was over 100 µM each time. Further, the TGI in the test on HCT-15 colon, in the test with HL-60(TB) leukemia, in the test on MALME-3M melanoma and with U251 CNS was over 100 µM in each case.

For `CC1(C)[C@@H]2C[C@H]1C(Cc1ccccc1C[C@H]1c3cc(-c4ccccn4)ncc3[C@H]3C[C@@H]1C3(C)C)c1cc(-c3ccccn3)ncc12` (stereo not given in full), the TGI in the test on CCRF-CEM leukemia is 0.899 µM; in the test on RXF 393 renal, over 25.1 µM; with SK-MEL-5 melanoma, 28.1 µM; with OVCAR-8 ovarian, over 25.5 µM; with LOX IMVI melanoma it was 1.48 µM; with NCI-H23 lung, over 100 µM. Further, the TGI in the test with HCT-15 colon was over 100 µM; in the test with HL-60(TB) leukemia, 0.65 µM; with MALME-3M melanoma, over 100 µM; in the test with U251 CNS, over 28.8 µM.

As for `N=C(N)SC1c2ccccc2-c2cc([N+](=O)[O-])ccc21` (stereo not given), the TGI is 20.3 µM in the test on CCRF-CEM leukemia; 10.3 µM in the test with RXF 393 renal; 10.6 µM in the test with SK-MEL-5 melanoma; 37.1 µM in the test with OVCAR-8 ovarian; 22.1 µM in the test with LOX IMVI melanoma; 18.3 µM with NCI-H23 lung. The TGI in the test with HCT-15 colon is 22.6 µM; in the test with HL-60(TB) leukemia it was 11.9 µM; in the test with MALME-3M melanoma, 16.9 µM; with U251 CNS it was 8.95 µM.

Regarding `CN(C)CCNc1ccc2nnn3c4ccc(Cl)cc4c(=O)c1c23`, the TGI with CCRF-CEM leukemia was over 52.8 µM; with RXF 393 renal, 13.1 µM; in the test on SK-MEL-5 melanoma, 10.6 µM; in the test on OVCAR-8 ovarian, 16.9 µM; in the test with LOX IMVI melanoma, 9.66 µM; with NCI-H23 lung, 18.7 µM. Moreover, the TGI in the test with HCT-15 colon turned out to be 14.8 µM; in the test on HL-60(TB) leukemia, 19.9 µM; with MALME-3M melanoma, 17 µM; with U251 CNS, 6.72 µM.

For `CN[C@@H]1[C@H](O)[C@H](NC)[C@H]2O[C@@]3(O)C(=O)C[C@@H](C)O[C@H]3O[C@@H]2[C@H]1O`, the TGI with CCRF-CEM leukemia, with RXF 393 renal, in the test on SK-MEL-5 melanoma, in the test with OVCAR-8 ovarian, with LOX IMVI melanoma and with NCI-H23 lung was over 100 µM throughout. The TGI in the test with HCT-15 colon, in the test on HL-60(TB) leukemia, in the test with MALME-3M melanoma and in the test on U251 CNS was over 100 µM each time.

For `C[n+]1ccccc1/C=C/c1ccc2c(c1)OCO2`, the TGI in the test on CCRF-CEM leukemia, with RXF 393 renal, in the test on SK-MEL-5 melanoma, in the test on OVCAR-8 ovarian, with LOX IMVI melanoma and in the test on NCI-H23 lung was over 10 µM throughout. The TGI with HCT-15 colon, in the test on HL-60(TB) leukemia, with MALME-3M melanoma and in the test with U251 CNS was over 10 µM in each case.

Regarding `O=[N+]([O-])/C=C/c1cccc(F)c1`, the TGI was 5.5 µM with CCRF-CEM leukemia; 4.32 µM with RXF 393 renal; 18.6 µM with SK-MEL-5 melanoma; 32 µM in the test with OVCAR-8 ovarian; over 100 µM in the test with LOX IMVI melanoma; 17.9 µM in the test with NCI-H23 lung. Further, the TGI with HCT-15 colon worked out at 5.6 µM; in the test on MALME-3M melanoma, 32.5 µM; with U251 CNS, 16.4 µM.

On to `CCCCCCc1ccc(O)cc1O`, for which the TGI was over 100 µM in the test with CCRF-CEM leukemia; over 100 µM in the test on RXF 393 renal; over 79.1 µM with SK-MEL-5 melanoma; over 100 µM in the test with OVCAR-8 ovarian; over 100 µM with LOX IMVI melanoma; over 100 µM with NCI-H23 lung. Also, the TGI in the test on HCT-15 colon, in the test on HL-60(TB) leukemia, in the test with MALME-3M melanoma and in the test with U251 CNS was over 100 µM throughout.

As to `COc1cc2c(cc1OC)C(C1(O)CCCCC1)NCC2` (stereo not given), the TGI in the test on CCRF-CEM leukemia, in the test with RXF 393 renal, in the test with SK-MEL-5 melanoma, in the test with OVCAR-8 ovarian, in the test on LOX IMVI melanoma and with NCI-H23 lung was over 100 µM each time. Besides, the TGI in the test with HCT-15 colon, with HL-60(TB) leukemia, in the test with MALME-3M melanoma and in the test on U251 CNS was over 100 µM throughout.

Consider `COc1cc2c(cc1O)CCN[C@@]21CS[C@H]2c3c(OC(C)=O)c(C)c4c(c3C(COC1=O)N1C2C2c3c(cc(C)c(OC)c3O)CC([C@@H]1O)N2C)OCO4` (stereo not given in full), for which the TGI in the test with CCRF-CEM leukemia and in the test on HL-60(TB) leukemia was under 1e-06 µM each time. Besides, the GI50 in the test on OVCAR-8 ovarian is 0.00149 µM; in the test with HCT-15 colon, 0.00282 µM; with HL-60(TB) leukemia it was under 1 pM.

`NC(Cc1ccc2oc3cc(=O)c4ccccc4c-3nc2c1)C(=O)O` (stereo not given): the TGI in the test on CCRF-CEM leukemia was 71.1 µM; with RXF 393 renal, 99.8 µM; with SK-MEL-5 melanoma, 11.5 µM; in the test on OVCAR-8 ovarian, over 100 µM; in the test with LOX IMVI melanoma it was 44.1 µM; in the test with NCI-H23 lung, 16.3 µM. Moreover, the TGI is over 88.3 µM with HCT-15 colon, 76.2 µM with HL-60(TB) leukemia, 17.6 µM with MALME-3M melanoma and over 87.1 µM with U251 CNS.

`Cc1c(Cl)c(S(N)(=O)=O)cc(S(N)(=O)=O)c1NC(=O)c1ccc(Cl)cc1`: the TGI in the test on CCRF-CEM leukemia, in the test with RXF 393 renal, in the test with SK-MEL-5 melanoma, with OVCAR-8 ovarian, with LOX IMVI melanoma and with NCI-H23 lung was over 100 µM throughout. Also, the TGI with HCT-15 colon, with HL-60(TB) leukemia, in the test with MALME-3M melanoma and in the test on U251 CNS was over 100 µM throughout.

Source of the values: PubChem BioAssay (NCI).
